Measurements published in the OligoGym collection.
These antisense oligonucleotides have a phosphorothioate backbone; sugars and methylation of C are not fully specified.

Tests used:
Conditions in all cases: ASO
RHOC = biological target: RHOC
INPPL1 = biological target: INPPL1
BIRC2 = biological target: BIRC2
PTEN = biological target: PTEN
Note: test concentration or dose not given here.

Sequence	remaining target (mRNA or protein) (fraction of control) (RHOC)	remaining target (mRNA or protein) (fraction of control) (BIRC2)	further results
TTCTCAAAGACAGTAGGG	0.98	–	–
TGCAGAAACAACTCCAGG	≥ 1	–	–
AGGTGGGTGGGAAGGAGA	–	–	remaining target (mRNA or protein) (fraction of control) (INPPL1): 0.98
CAGTGGTGGAGGTGGAAA	–	–	remaining target (mRNA or protein) (fraction of control) (INPPL1): ≥ 1
TCCAAGTCCTCCTCGGTG	–	–	remaining target (mRNA or protein) (fraction of control) (INPPL1): ≥ 1
TACCTTGAATCTCATCAA	–	≥ 1	–
AAATTACACTCCATAGAA	–	≥ 1	–
ACGGTGGGATAGGAAGGT	–	–	remaining target (mRNA or protein) (fraction of control) (INPPL1): ≥ 1
TGTTTTCCAGGCTGTCAG	0.41	–	–
TATATGCAGGCTTCTTTC	–	0.77	–
AGGGCAGGGCATAGGCGT	0.69	–	–
GTATGGAGCCCTCAGGAG	0.4	–	–
GCAGGAGGGAACTGAAAA	0.73	–	–
CAAGATCTTCACAAAAGG	–	–	remaining target (mRNA or protein) (fraction of control) (PTEN): ≥ 1
TTTCTCATTGGAGACGTA	–	0.68	–
TGTGAAACAACAGTGCCA	–	–	remaining target (mRNA or protein) (fraction of control) (PTEN): 0.25
TTAGATGGCTTCAAGTGT	–	0.9	–
ACTTTCTTCCTAACTTTG	–	≥ 1	–

Sequence	remaining target (mRNA or protein) (fraction of control) (RHOC)	remaining target (mRNA or protein) (fraction of control) (BIRC2)	further results
ATATAGTTCACCAAACAT	–	≥ 1	–
TTCCTGGTTTCCAGTTCT	–	0.54	–
AAGCACTTTAACATGACA	–	0.85	–
ATGGTGACAGGCGACTCA	–	–	remaining target (mRNA or protein) (fraction of control) (PTEN): 0.25
TCGCTTGTAAAGGTATCT	–	≥ 1	–
CCCCAATACAGATTCACT	–	–	remaining target (mRNA or protein) (fraction of control) (PTEN): 0.48
TCAAAGACAGTAGGGACG	≥ 1	–	–
CAGACCGAACGGGCTCCT	0.35	–	–
CCTCCGAACGGCTGCCTC	–	–	remaining target (mRNA or protein) (fraction of control) (PTEN): 0.4
TAAATAGCTGGAGATGGT	–	–	remaining target (mRNA or protein) (fraction of control) (PTEN): 0.45
CAATCTGACAAGATCGTG	–	≥ 1	–
ATTTCTTGATCACATAGA	–	–	remaining target (mRNA or protein) (fraction of control) (PTEN): ≥ 1
ACTCTGGGTCCCTACTGC	0.8	–	–
GAAAATGGAGCCTTCAGT	0.76	–	–
CCCCTCCGACGCTTGTTC	0.34	–	–
GTGTCAAAACCCTGTGGA	–	–	remaining target (mRNA or protein) (fraction of control) (PTEN): 0.28
GTGCCTATGAAGACTGAG	–	–	remaining target (mRNA or protein) (fraction of control) (INPPL1): 0.4
